For data set [1] the following is noted: therapeutic total cmax; ref PMID; cited from earlier work.
The test system of another data set is PHH 2D sandwich cultures. The settings on record: cited from earlier work.
Data set [2] relates to PHH spheroids (hanging-drop). The following applies: cited from earlier work.
For data set [3] the following is noted: cited from earlier work; for Extent of hepatic metabolism: ref DrugBank and Prescribers' Digital Reference database.
The test system of another data set is clinical DILI in man. The following applies: cited from earlier work.
In data set [4] the test system is primary human hepatocytes (PHH) 3D spheroids.
[5] abbreviates: PHH 2D sandwich cultures, 100x Cmax, ref Xu 2008.
[6] abbreviates: PHH hanging-drop spheroids, 100x Cmax, ref Proctor 2017.
The mark [7] stands for this setting: FDA drug labeling DILI score, ref Chen et al., 2011.
Setting [8] is: clinical DILI classification in man (POS/NEG).
[9] abbreviates: clinical DILI classification used in this study, Supplementary Table 2, ref Chen et al., 2011, Guo et al., 2005, O'Brien et al., 2006, Sakatis et al., 2012, Suzuki et al., 2010, Xu et al., 2008.
[10] abbreviates: clinical DILI classification, Supplementary Table 1, ref Chen et al., 2011, Guo et al., 2005, O'Brien et al., 2006, Sakatis et al., 2012, Suzuki et al., 2010, Xu et al., 2008.
The mark [11] stands for this setting: reported pattern of liver damage, Supplementary Table 2, ref literature.

Where two headings read alike, the source gives them in different places.

Consider `Clc1ccccc1CN1CCc2sccc2C1` [Ticlopidine], for which, in data set [1], the peak concentration (Cmax) is 8.07 µM. Besides, in the data set with PHH 2D sandwich cultures (setting [5]), the “2Dsw (Xu 2008) 100x” value is “Positive”. The “Hanging-drop spheroids (Proctor 2017) 100x” value (from here on “Hanging-drop spheroids”) in data set [2] (setting [6]) is given as “Positive”.

With `O=C1CN(/N=C/c2ccc([N+](=O)[O-])o2)C(=O)N1` [Nitrofurantoin], the “Extent of hepatic metabolism” value in data set [3] is given as “Minimal”. Moreover, the peak concentration (Cmax) in data set [1] was 21 µM. Also, in the data set with clinical DILI in man (in vivo), the Classified as entry is recorded as “POS”, the “Clinical DILI class (panel heading of Figure 4)” value was “Severe DILI”, the DILI in vivo entry is given as “POS” and the “FDA (0-8)” value was 8. For the same compound, in the data set on clinical DILI in man (in vivo), the “FDA (Severity)” value is reported as “most DILI concern”, the “Guo et al. (2005)” value is on record as 3, the “O'Brien et al. (2003)” value is listed as “Severely” and the “Sakatis et al. (2012)” value is on record as “Hepatotoxic”. In the data set on clinical DILI in man (in vivo), the “Suzuki et al. (2010)” value is on record as 2, the “Type of DILI” value is on record as “Hepatocellular injury or Autoimmune hepatitis” and the “association with idiopathic autoimmune hepatitis” value is “associated with cases of idiopathic autoimmune hepatitis”. Besides, in data set [2] (setting [6]), the “Hanging-drop spheroids” value is given as “Positive”.

With `CCCCc1oc2ccccc2c1C(=O)c1cc(I)c(OCCN(CC)CC)c(I)c1` [Amiodarone], in the data set with PHH 2D sandwich cultures (setting [5]), the “2Dsw (Xu 2008) 100x” value is given as “Positive”. Also, in data set [2] (setting [6]), the “Hanging-drop spheroids” value is on record as “Positive”.

Take `COc1ccccc1Oc1c(NS(=O)(=O)c2ccc(C(C)(C)C)cc2)nc(-c2ncccn2)nc1OCCO` [Bosentan]: in data set [4], the “Chemically defined spheroids (this study) 20x” value (“Chemically defined spheroids” below) is listed as “Positive” and the “hepatotoxicity evaluation in CD-spheroids” value (“hepatotoxicity evaluation” below) is “clearly detected bosentan-induced liver injury”. Moreover, the “Extent of hepatic metabolism” value in data set [3] is “Extensive”. In addition, the “Suzuki et al. (2010)” value with clinical DILI in man (DILI classification score, ref Suzuki et al. (2010)) is reported as 1. Moreover, in the data set with clinical DILI in man (FDA drug labeling DILI concern, ref Chen et al., 2011), the “FDA (Severity)” value is “most DILI concern”. For the same compound, the “FDA (0-8)” value in the data set with clinical DILI in man (setting [7]) is recorded as 7. For the same compound, the DILI in vivo result in the data set on clinical DILI in man (setting [8]) is “POS”. Also, the Classified as result in the data set with clinical DILI in man (setting [9]) is given as “POS”. For the same compound, the DILI in vivo result with clinical DILI in man (setting [10]) was “POS”. Besides, in the data set with clinical DILI in man (setting [11]), the “Type of DILI” value was “Hepatocellular injury or Mixed hepatitis”. The “Clinical DILI classification (Figure 5)” value in the data set on clinical DILI in man (structural analogue pairs, Figure 5, ref Chen et al., 2011, Xu et al., 2008 and others) was “DILI positive”. For the same compound, the “Hanging-drop spheroids” value in data set [2] (setting [6]) is recorded as “Positive”.

For the compound `C#CCN(C)Cc1ccccc1` [Pargyline], in data set [4], the “Chemically defined spheroids” value is reported as “Negative”. Moreover, the “Extent of hepatic metabolism” value in data set [3] is given as “Moderate”. In addition, the Cmax in data set [1] is 0.82 µM. In addition, the DILI in vivo entry in the data set on clinical DILI in man (setting [8]) and in the data set on clinical DILI in man (setting [10]) was “NEG” in each case. The Classified as result in the data set with clinical DILI in man (setting [9]) is “NEG”. Further, in the data set on clinical DILI in man (setting [11]), the “Type of DILI” value is given as “Non-hepatotoxic”. The “Hanging-drop spheroids” value in data set [2] (setting [6]) is listed as “Negative”.

Take `CC(C(=O)O)c1ccc2oc(-c3ccc(Cl)cc3)nc2c1` (centres unmarked) [Benoxaprofen]: in data set [4], the “Chemically defined spheroids” value was “Negative”. For the same compound, in data set [3], the “Extent of hepatic metabolism” value is “Moderate”. Besides, in data set [1], the Cmax is 33.1 µM. In the data set with clinical DILI in man (in vivo), the Classified as result is given as “POS”, the “Clinical DILI class (panel heading of Figure 4)” value is reported as “Severe DILI”, the DILI in vivo result is given as “POS” and the “FDA (0-8)” value is “Withdrawn”. Besides, in the data set with clinical DILI in man (in vivo), the “FDA (Severity)” value is reported as “most DILI concern”, the “Suzuki et al. (2010)” value was 3 and the “Type of DILI” value is given as “Hepatocellular injury”. Moreover, the “Hanging-drop spheroids” value in data set [2] (setting [6]) is on record as “Negative”.

`CN(C)CCC(c1ccc(Cl)cc1)c1ccccn1` (centres unmarked) [Chlorpheniramine]: the “Extent of hepatic metabolism” value in data set [3] is recorded as “Extensive”. For the same compound, in the data set on clinical DILI in man (in vivo), the Classified as entry is “NEG”, the “Clinical DILI class (panel heading of Figure 4)” value is reported as “DILI negative”, the DILI in vivo entry is “NEG” and the “FDA (0-8)” value is given as 0. Further, in the data set on clinical DILI in man (in vivo), the “Type of DILI” value is given as “Non-hepatotoxic” and the “Xu et al. (2008)” value is “Positive”. The “Hanging-drop spheroids” value in data set [2] (setting [6]) was “Negative”.

For the compound `CC(C)(C)NCC(O)COc1cccc2c1CC(O)C(O)C2` (centres unmarked) [Nadolol], in data set [4], the “Chemically defined spheroids” value was “Negative”. In addition, the “Extent of hepatic metabolism” value in data set [3] is recorded as “Minimal”. Moreover, the “FDA (0-8)” value in the data set with clinical DILI in man (setting [7]) is 3. Further, the DILI in vivo entry with clinical DILI in man (setting [8]) and with clinical DILI in man (setting [10]) was “NEG” in each case. Also, in the data set on clinical DILI in man (setting [9]), the Classified as result is “NEG”. Further, the “Xu et al. (2008)” value in the data set on clinical DILI in man (clinical DILI classification, ref Xu et al. (2008)) was “Negative”. The “Type of DILI” value with clinical DILI in man (setting [11]) is recorded as “Non-hepatotoxic”. The “2Dsw (Xu 2008) 100x” value in the data set with PHH 2D sandwich cultures (setting [5]) is “Negative”. Moreover, the “Hanging-drop spheroids” value in data set [2] (setting [6]) is “Negative”.

On to `CCN(CC)CC#CCOC(=O)C(O)(c1ccccc1)C1CCCCC1` (centres unmarked) [Oxybutynin], for which, in data set [4], the “Chemically defined spheroids” value was “Negative”. Further, the maximum concentration (Cmax) in data set [1] was 0.02 µM. Besides, in the data set on clinical DILI in man (in vivo), the Classified as entry is “NEG”, the “Clinical DILI class (panel heading of Figure 4)” value is given as “DILI negative”, the DILI in vivo result is recorded as “NEG” and the “FDA (0-8)” value is given as 0. Besides, in the data set with clinical DILI in man (in vivo), the “Sakatis et al. (2012)” value was “non-hepatotixic”, the “Type of DILI” value is “Non-hepatotoxic” and the “Xu et al. (2008)” value is listed as “Negative”. Besides, in the data set on PHH 2D sandwich cultures, the “2Dsw (Xu 2008) 100x” value is reported as “Negative”. The “Hanging-drop spheroids” value in data set [2] was “Negative”.

For `CS(=O)(=O)Nc1ccc([N+](=O)[O-])cc1Oc1ccccc1` [Nimesulide], the “Chemically defined spheroids” value in data set [4] is recorded as “Positive”. Moreover, in data set [1], the Cmax was 21.1 µM. Further, in the data set on clinical DILI in man (in vivo), the Classified as result is listed as “POS”, the “Clinical DILI class (panel heading of Figure 4)” value is “Severe DILI”, the DILI in vivo entry is given as “POS” and the “FDA (0-8)” value is given as “Withdrawn”. In the data set with clinical DILI in man (in vivo), the “FDA (Severity)” value was “most DILI concern”, the “O'Brien et al. (2003)” value is recorded as “Severely”, the “Sakatis et al. (2012)” value was “Hepatotoxic” and the “Suzuki et al. (2010)” value is reported as 3. For the same compound, in the data set with clinical DILI in man (in vivo), the “Type of DILI” value is recorded as “Hepatocellular injury or Cholestatic injury” and the “Xu et al. (2008)” value was “Positive”. Further, the “2Dsw (Xu 2008) 100x” value in the data set on PHH 2D sandwich cultures is “Positive”. In addition, the “Hanging-drop spheroids” value in data set [2] is listed as “Positive”.

For `COc1ccc2c(c1)c(CC(=O)O)c(C)n2C(=O)c1ccc(Cl)cc1` [Indomethacin], in data set [4], the “Chemically defined spheroids” value is listed as “Positive” and the “hepatotoxicity evaluation” value is recorded as “revealed the DILI liability”. Moreover, the “hepatotoxicity evaluation” value in data set [4] (human, 14 days) is reported as “clearly detected already at 1× cmax exposure levels”. The “hepatotoxicity classification in hanging-drop PHH spheroids” value in data set [2] (100× cmax, 2 weeks, ref Proctor et al., 2017) was “previously missed”.

With `Cc1nc2n(c(=O)c1CCN1CCC(c3noc4cc(F)ccc34)CC1)CCCC2` [Risperidone], in data set [4], the “Chemically defined spheroids” value is given as “Negative”. In addition, the “Extent of hepatic metabolism” value in data set [3] is given as “Extensive”. In addition, in data set [3] (ref Madden et al., 1995, El-Hage and Surguladze, 2010, Rawden et al., 2000, Villaverde et al.), the first pass metabolism result was “extensive first pass metabolism”. In addition, the maximum concentration (Cmax) in data set [1] was 0.08 µM. Moreover, in the data set with clinical DILI in man (in vivo), the Classified as entry is recorded as “POS”, the “Clinical DILI class (panel heading of Figure 4)” value is “High DILI concern”, the DILI in vivo result was “POS” and the “FDA (0-8)” value is reported as 3. Further, in the data set with clinical DILI in man (in vivo), the “Guo et al. (2005)” value is on record as 2; the “Suzuki et al. (2010)” value is reported as 1; the “Type of DILI” value is listed as “Hepatocellular injury, Cholestatic injury or Mixed hepatitis”; the “Xu et al. (2008)” value is recorded as “Positive”. Moreover, in the data set on PHH 2D sandwich cultures (setting [5]), the “2Dsw (Xu 2008) 100x” value was “Negative”.

The Cmax is the maximum level reached in the sampled fluid or tissue.
